Like-named read-outs stand apart in the source and are kept apart here.
System: Mycosphaerella graminicola; Anamorph: Septoria tritici; Bayer Code SEPTTR
Test: Leaf blotch of wheat, foliar fungicide treatment, one day protectant (1DP) or three day curative (3DC)
Assay type: in vivo, Septoria tritici on wheat plants (variety Yuma)
Details: Zymoseptoria tritici, percent control rating; for pest or weed control at 100 ppm: read-out: SEPTTR 3DC 100 ppm
[1] = 24 h, one day protectant (1DP), 25 ppm (first 1DP column), read-out: SETTTR 1DP 25 ppm
[2] = 24 h, one day protectant (1DP), 25 ppm as printed (second 1DP column), read-out: SETTTR 1DP 25 ppm
[3] = 72 h, three day curative (3DC), 25 ppm, read-out: SEPTTR 3DC 25 ppm

Compound	pest or weed control at 25 ppm [1]	pest or weed control at 25 ppm [2]	pest or weed control at 25 ppm [3]	pest or weed control at 100 ppm (72 h, three day curative (3DC))
N=C(NO)Nc1nc(OCc2ccccc2)ncc1F [Compound 964, 1-[2-(Benzyloxy)-5-fluoropyrimidin-4-yl]-3-hydroxyguanidine]	0 to 25%	0 to 25%	0 to 25%	26 to 50%
O=C(Nc1nc(O)ncc1F)c1ccc(Cl)nc1 [Compound 965]	26 to 50%	76 to 100%	26 to 50%	26 to 50%
O=C(Nc1ccccc1Cl)Nc1nc(O)ncc1F [Compound 966]	26 to 50%	51 to 75%	51 to 75%	51 to 75%
O=C(Nc1ccccc1)Nc1nc(O)ncc1F [Compound 967]	26 to 50%	26 to 50%	51 to 75%	51 to 75%
Cc1ccc(NC(=O)Nc2nc(O)ncc2F)cc1 [Compound 968]	51 to 75%	51 to 75%	51 to 75%	51 to 75%
O=C(NCc1ccccc1)Nc1nc(O)ncc1F [Compound 969]	26 to 50%	26 to 50%	26 to 50%	51 to 75%
O=C(NCc1ccccc1F)Nc1nc(O)ncc1F [Compound 970]	26 to 50%	51 to 75%	26 to 50%	26 to 50%
CC(C)NC(=O)Nc1nc(O)ncc1F [Compound 971]	26 to 50%	26 to 50%	51 to 75%	76 to 100%
CCCCCNC(=O)Nc1nc(O)ncc1F [Compound 972]	51 to 75%	76 to 100%	51 to 75%	51 to 75%
O=C(Nc1nc(O)ncc1F)NC1CCCC1 [Compound 973]	26 to 50%	26 to 50%	76 to 100%	51 to 75%
O=C(/C=C/c1ccccc1)Nc1nc(O)ncc1F [Compound 974]	51 to 75%	76 to 100%	51 to 75%	26 to 50%
CC(C)(C)NC(=O)Nc1nc(O)ncc1F [Compound 975]	0 to 25%	0 to 25%	0 to 25%	0 to 25%
CCOC(=O)CNC(=O)Nc1nc(O)ncc1F [Compound 976]	0 to 25%	0 to 25%	0 to 25%	0 to 25%
Cc1coc(C)c1C(=O)Nc1nc(O)ncc1F [Compound 977]	0 to 25%	51 to 75%	0 to 25%	76 to 100%
Cn1ncc(C(=O)Nc2nc(O)ncc2F)c1Cl [Compound 978]	0 to 25%	0 to 25%	0 to 25%	0 to 25%
O=C(Nc1nc(O)ncc1F)c1ccsc1 [Compound 979]	0 to 25%	26 to 50%	0 to 25%	51 to 75%
CCCNC(=O)Nc1nc(O)ncc1F [Compound 980]	0 to 25%	0 to 25%	0 to 25%	0 to 25%
O=C(NCc1ccco1)Nc1nc(O)ncc1F [Compound 981]	0 to 25%	0 to 25%	0 to 25%	0 to 25%
CCCCCOC(=O)Nc1nc(OCc2ccccc2)ncc1F [Compound 982]	76 to 100%	76 to 100%	76 to 100%	76 to 100%
C=CCOC(=O)Nc1nc(OCc2ccccc2)ncc1F [Compound 983]	76 to 100%	76 to 100%	76 to 100%	76 to 100%
CCCCCOC(=O)Nc1nc(OCc2ccc(F)cc2)ncc1F [Compound 984]	76 to 100%	76 to 100%	76 to 100%	76 to 100%
C=CCOC(=O)Nc1nc(OCc2ccc(F)cc2)ncc1F [Compound 985]	76 to 100%	76 to 100%	76 to 100%	76 to 100%
CCCCCOC(=O)Nc1nc(OCc2ccc(C)cc2)ncc1F [Compound 986]	76 to 100%	76 to 100%	76 to 100%	76 to 100%

Compound	pest or weed control at 25 ppm [1]	pest or weed control at 25 ppm [2]	pest or weed control at 25 ppm [3]	pest or weed control at 100 ppm (72 h, three day curative (3DC))
C=CCOC(=O)Nc1nc(OCc2ccc(C)cc2)ncc1F [Compound 987]	76 to 100%	76 to 100%	76 to 100%	76 to 100%
CCCCCOC(=O)Nc1nc(OCc2cccc(OC)c2)ncc1F [Compound 988]	76 to 100%	76 to 100%	76 to 100%	76 to 100%
C=CCOC(=O)Nc1nc(OCc2cccc(OC)c2)ncc1F [Compound 989]	76 to 100%	76 to 100%	51 to 75%	76 to 100%
C/C(=N\Oc1nc(OCc2ccccc2)ncc1F)c1cnc(OCC(F)(F)F)nc1 [Compound 990]	0 to 25%	0 to 25%	0 to 25%	0 to 25%
Fc1cnc(OCc2ccccc2)nc1/N=N/c1ccccc1 [Compound 991]	0 to 25%	0 to 25%	0 to 25%	0 to 25%
Cc1ccc(COc2ncc(F)c(/N=N/c3ccccc3)n2)cc1 [Compound 992]	0 to 25%	0 to 25%	0 to 25%	26 to 50%
Fc1cnc(OCc2ccccc2)nc1/N=N/c1ccccn1 [Compound 993]	0 to 25%	26 to 50%	0 to 25%	51 to 75%
Cc1ccc(COc2ncc(F)c(NS(=O)(=O)c3ccccc3)n2)cc1 [Compound 994]	0 to 25%	26 to 50%	0 to 25%	0 to 25%
CCc1ccccc1NNc1nc(OCc2ccc(C)cc2)ncc1F [Compound 995]	0 to 25%	26 to 50%	0 to 25%	0 to 25%
COc1ccccc1NNc1nc(OCc2ccc(C)cc2)ncc1F [Compound 996]	26 to 50%	51 to 75%	26 to 50%	51 to 75%
CC(C)=NOc1ncc(F)c(N)n1 [Compound 997]	76 to 100%	76 to 100%	76 to 100%	76 to 100%
Nc1nc(ON=C(C2CC2)C2CC2)ncc1F [Compound 998]	76 to 100%	76 to 100%	76 to 100%	76 to 100%
COc1ccc(/C(C)=N/Oc2ncc(F)c(N)n2)cc1 [Compound 999]	76 to 100%	76 to 100%	76 to 100%	76 to 100%
C/C(=N\Oc1ncc(F)c(N)n1)c1ccc(Cl)cc1 [Compound 1000]	76 to 100%	76 to 100%	76 to 100%	76 to 100%
C/C(=N\Oc1ncc(F)c(N)n1)c1cnc(OCC(F)(F)F)nc1 [Compound 1001]	26 to 50%	76 to 100%	26 to 50%	76 to 100%
C/C(=N\Oc1ncc(F)c(N)n1)c1ccc(S(=O)(=O)N(C)C)cc1 [Compound 1002]	51 to 75%	76 to 100%	26 to 50%	51 to 75%
CC(C)S(=O)(=O)Nc1nc(OCc2ccc(F)cc2)ncc1F [Compound 1004]	0 to 25%	0 to 25%	0 to 25%	26 to 50%
O=S(=O)(Nc1nc(OCc2ccc(F)cc2)ncc1F)c1ccccc1 [Compound 1005]	0 to 25%	0 to 25%	0 to 25%	0 to 25%
CCS(=O)(=O)Nc1nc(OCc2ccc(C)cc2)ncc1F [Compound 1006]	0 to 25%	0 to 25%	0 to 25%	0 to 25%
Cc1ccc(COc2ncc(F)c(NS(=O)(=O)C3CC3)n2)cc1 [Compound 1007]	0 to 25%	0 to 25%	0 to 25%	0 to 25%
CS(=O)(=O)Nc1nc(OCc2ccccc2)ncc1F [Compound 1008]	0 to 25%	0 to 25%	0 to 25%	0 to 25%
CC(C)S(=O)(=O)Nc1nc(OCc2ccccc2)ncc1F [Compound 1009]	0 to 25%	0 to 25%	0 to 25%	0 to 25%
